Results taken from patent US20220119354A1, “DIAMINO-SUBSTITUTED PYRIDINES AND PYRIMIDINES AS HERBICIDES” (FMC Corporation, priority 2019, published 2022).

Assays:
Assay type in all cases: in vivo
[1] = tested on: barnyardgrass (Echinochloa crus-galli); assay: Test A preemergence, barnyardgrass; details: 0 to 100 scale, 0 is no effect, 100 is complete control
Summary of the method: (§1)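 Visual injury scored against untreated controls about 10 d after treatment, scale 0 = no effect to 100 = complete control. Compounds, formulated with surfactant in a non-phytotoxic solvent, went on as directed soil spray preemergence or onto 2–10 cm, one- to two-leaf plants postemergence; loam–sand soil, greenhouse.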

[2] = tested on: kochia (Kochia scoparia); assay: Test A preemergence, kochia; details: 0 to 100 scale, 0 is no effect, 100 is complete control
Summary of the method: as §1

[3] = tested on: ragweed (common ragweed, Ambrosia elatior); assay: Test A preemergence, ragweed; details: 0 to 100 scale, 0 is no effect, 100 is complete control
Summary of the method: as §1

[4] = tested on: ryegrass, Italian (Lolium multiflorum); assay: Test A preemergence, Italian ryegrass; details: 0 to 100 scale, 0 is no effect, 100 is complete control
Summary of the method: as §1

[5] = tested on: foxtail, giant (Setaria faberii); assay: Test A preemergence, giant foxtail; details: 0 to 100 scale, 0 is no effect, 100 is complete control
Summary of the method: as §1

[6] = tested on: pigweed (Amaranthus retroflexus); assay: Test A preemergence, pigweed; details: 0 to 100 scale, 0 is no effect, 100 is complete control
Summary of the method: as §1

[7] = tested on: barnyardgrass (Echinochloa crus-galli); assay: Test A postemergence, barnyardgrass; details: 0 to 100 scale, 0 no effect, 100 complete control
Summary of the method: as §1

[8] = tested on: kochia (Kochia scoparia); assay: Test A postemergence, kochia; details: 0 to 100 scale, 0 no effect, 100 complete control
Summary of the method: as §1

[9] = tested on: ragweed (common ragweed, Ambrosia elatior); assay: Test A postemergence, ragweed; details: 0 to 100 scale, 0 no effect, 100 complete control
Summary of the method: as §1

[10] = tested on: ryegrass, Italian (Lolium multiflorum); assay: Test A postemergence, Italian ryegrass; details: 0 to 100 scale, 0 no effect, 100 complete control
Summary of the method: as §1

[11] = tested on: foxtail, giant (Setaria faberii); assay: Test A postemergence, giant foxtail; details: 0 to 100 scale, 0 no effect, 100 complete control
Summary of the method: as §1

[12] = tested on: pigweed (Amaranthus retroflexus); assay: Test A postemergence, pigweed; details: 0 to 100 scale, 0 no effect, 100 complete control
Summary of the method: as §1

[13] = tested on: wheat (Triticum aestivum); assay: Test A postemergence, wheat; details: 0 to 100 scale, 0 no effect, 100 complete control
Summary of the method: as §1

[14] = tested on: corn (Zea mays); assay: Test A postemergence, corn; details: 0 to 100 scale, 0 no effect, 100 complete control
Summary of the method: as §1

[15] = tested on: blackgrass (Alopecurus myosuroides); assay: Test A postemergence, blackgrass; details: 0 to 100 scale, 0 no effect, 100 complete control
Summary of the method: as §1

[16] = tested on: galium (catchweed bedstraw, Galium aparine); assay: Test A postemergence, galium; details: 0 to 100 scale, 0 no effect, 100 complete control
Summary of the method: as §1

[17] = tested on: rice (Oryza sativa); assay: Test B flooded paddy test, rice; details: Flood, 250 g ai/ha, applied to paddy water, 2-leaf stage, visual evaluation after 13 to 15 d
Summary of the method: (§2)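 Pots flooded to 3 cm above the soil when treated, with test compound added straight to the water and the flood maintained. Treated plants were at the 2-leaf stage and stayed 13–15 d in greenhouse. Response versus untreated controls scored visually from 0 (no effect) to 100 (complete control).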

[18] = tested on: sedge, umbrella (small-flower umbrella sedge, Cyperus difformis); assay: Test B flooded paddy test, umbrella sedge; details: Flood, 250 g ai/ha, applied to paddy water, 2-leaf stage, visual evaluation after 13 to 15 d
Summary of the method: as §2

[19] = tested on: ducksalad (Heteranthera limosa); assay: Test B flooded paddy test, ducksalad; details: Flood, 250 g ai/ha, applied to paddy water, 2-leaf stage, visual evaluation after 13 to 15 d
Summary of the method: as §2

[20] = tested on: barnyardgrass (Echinochloa crus-galli); assay: Test B flooded paddy test, barnyardgrass; details: Flood, 250 g ai/ha, applied to paddy water, 2-leaf stage, visual evaluation after 13 to 15 d
Summary of the method: as §2

Compound	Barnyardgrass plant response rating ([1]; 125 g ai/ha)	Barnyardgrass plant response rating ([1]; 500 g ai/ha)	Kochia plant response rating ([2]; 125 g ai/ha)	Kochia plant response rating ([2]; 500 g ai/ha)	Ragweed plant response rating ([3]; 125 g ai/ha)	Ragweed plant response rating ([3]; 500 g ai/ha)	Ryegrass, Italian plant response rating ([4]; 125 g ai/ha)	Ryegrass, Italian plant response rating ([4]; 500 g ai/ha)	Foxtail, Giant plant response rating ([5]; 125 g ai/ha)	Foxtail, Giant plant response rating ([5]; 500 g ai/ha)	Pigweed plant response rating ([6]; 125 g ai/ha)	Pigweed plant response rating ([6]; 500 g ai/ha)	Plant response rating, Barnyardgrass ([7]; 125 g ai/ha)	Plant response rating, Barnyardgrass ([7]; 500 g ai/ha)	Plant response rating, Kochia ([8]; 125 g ai/ha)	Plant response rating, Kochia ([8]; 500 g ai/ha)	Plant response rating, Ragweed ([9]; 125 g ai/ha)	Plant response rating, Ragweed ([9]; 500 g ai/ha)	Plant response rating, Ryegrass, Italian ([10]; 125 g ai/ha)	Plant response rating, Ryegrass, Italian ([10]; 500 g ai/ha)	further results
C[C@H](Nc1ncc(C(F)(F)F)c(N)n1)c1cc2ccccc2n1C [Compound 76]	0	0	0	0	0	0	0	30	0	0	0	0	0	0	0	0	0	30	0	0	Plant response rating, Foxtail, Giant ([11]; 125 g ai/ha): 0; Plant response rating, Foxtail, Giant ([11]; 500 g ai/ha): 0; Plant response rating, Pigweed ([12]; 125 g ai/ha): 0; Plant response rating, Pigweed ([12]; 500 g ai/ha): 0; Plant response rating, Wheat ([13]; 125 g ai/ha): 0; Plant response rating, Wheat ([13]; 500 g ai/ha): 0; Plant response rating, Corn ([14]; 125 g ai/ha): 0; Plant response rating, Corn ([14]; 500 g ai/ha): 0; Plant response rating, Blackgrass ([15]; 125 g ai/ha): 0; Plant response rating, Blackgrass ([15]; 500 g ai/ha): 0; Plant response rating, Galium ([16]; 125 g ai/ha): 30; Plant response rating, Galium ([16]; 500 g ai/ha): 30; Plant response rating, Rice (0 to 100 scale, 0 is no effect, 100 is complete control) [17]: 0; Plant response rating, Sedge, Umbrella (0 to 100 scale, 0 is no effect, 100 is complete control) [18]: 0; Plant response rating, Ducksalad (0 to 100 scale, 0 is no effect, 100 is complete control) [19]: 0; Plant response rating, Barnyardgrass (0 to 100 scale, 0 is no effect, 100 is complete control) [20]: 0
Nc1nc(N[C@H](c2coc3ccccc23)C2CC2)ncc1C(F)(F)F [Compound 78]	0	0	80	90	0	20	20	50	0	0	0	20	0	0	0	20	0	0	0	0	Plant response rating, Foxtail, Giant ([11]; 125 g ai/ha): 0; Plant response rating, Foxtail, Giant ([11]; 500 g ai/ha): 0; Plant response rating, Pigweed ([12]; 125 g ai/ha): 60; Plant response rating, Pigweed ([12]; 500 g ai/ha): 70; Plant response rating, Wheat ([13]; 125 g ai/ha): 0; Plant response rating, Wheat ([13]; 500 g ai/ha): 0; Plant response rating, Corn ([14]; 125 g ai/ha): 0; Plant response rating, Corn ([14]; 500 g ai/ha): 0; Plant response rating, Blackgrass ([15]; 125 g ai/ha): 0; Plant response rating, Blackgrass ([15]; 500 g ai/ha): 0; Plant response rating, Galium ([16]; 125 g ai/ha): 0; Plant response rating, Galium ([16]; 500 g ai/ha): 10; Plant response rating, Rice (0 to 100 scale, 0 is no effect, 100 is complete control) [17]: 0; Plant response rating, Sedge, Umbrella (0 to 100 scale, 0 is no effect, 100 is complete control) [18]: 0; Plant response rating, Ducksalad (0 to 100 scale, 0 is no effect, 100 is complete control) [19]: 0; Plant response rating, Barnyardgrass (0 to 100 scale, 0 is no effect, 100 is complete control) [20]: 0
